pIC50, pKi: −log10 of the molar value. In brackets after ≈: the same amount, converted by molar mass. One block for each compound: values may come before it.
Key:
[1] = target: T1, Fatty-acid amide hydrolase 1 (Homo sapiens, UniProt O00519); test: Inhibition of human FAAH expressed in CHO cells using 7-amino-4-methylcoumarine amide as substrate preincubated for 1 hr by fluorimetry; format: cell-based
T1 sequence (O00519 whole entry): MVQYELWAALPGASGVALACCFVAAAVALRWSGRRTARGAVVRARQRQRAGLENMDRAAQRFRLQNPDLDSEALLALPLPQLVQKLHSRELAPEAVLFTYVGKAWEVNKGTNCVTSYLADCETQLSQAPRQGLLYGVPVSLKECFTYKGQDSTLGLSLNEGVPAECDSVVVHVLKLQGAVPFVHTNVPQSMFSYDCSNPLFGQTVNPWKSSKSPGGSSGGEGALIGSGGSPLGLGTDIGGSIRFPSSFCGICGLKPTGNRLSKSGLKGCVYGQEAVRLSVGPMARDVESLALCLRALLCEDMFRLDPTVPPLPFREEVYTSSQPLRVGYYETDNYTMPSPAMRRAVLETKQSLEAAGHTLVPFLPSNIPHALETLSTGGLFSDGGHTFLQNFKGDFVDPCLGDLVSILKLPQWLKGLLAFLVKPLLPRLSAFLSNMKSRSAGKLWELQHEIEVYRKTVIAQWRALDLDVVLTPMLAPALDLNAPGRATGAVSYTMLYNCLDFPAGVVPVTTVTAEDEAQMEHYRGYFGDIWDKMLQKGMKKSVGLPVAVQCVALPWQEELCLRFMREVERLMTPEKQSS

[2] = target: T2, Fatty-acid amide hydrolase 1 (Rattus norvegicus, UniProt P97612); test: Inhibition of rat FAAH using 7-amino-4-methylcoumarine amide as substrate preincubated for 1 hr by fluorimetry
T2 sequence (P97612 whole entry): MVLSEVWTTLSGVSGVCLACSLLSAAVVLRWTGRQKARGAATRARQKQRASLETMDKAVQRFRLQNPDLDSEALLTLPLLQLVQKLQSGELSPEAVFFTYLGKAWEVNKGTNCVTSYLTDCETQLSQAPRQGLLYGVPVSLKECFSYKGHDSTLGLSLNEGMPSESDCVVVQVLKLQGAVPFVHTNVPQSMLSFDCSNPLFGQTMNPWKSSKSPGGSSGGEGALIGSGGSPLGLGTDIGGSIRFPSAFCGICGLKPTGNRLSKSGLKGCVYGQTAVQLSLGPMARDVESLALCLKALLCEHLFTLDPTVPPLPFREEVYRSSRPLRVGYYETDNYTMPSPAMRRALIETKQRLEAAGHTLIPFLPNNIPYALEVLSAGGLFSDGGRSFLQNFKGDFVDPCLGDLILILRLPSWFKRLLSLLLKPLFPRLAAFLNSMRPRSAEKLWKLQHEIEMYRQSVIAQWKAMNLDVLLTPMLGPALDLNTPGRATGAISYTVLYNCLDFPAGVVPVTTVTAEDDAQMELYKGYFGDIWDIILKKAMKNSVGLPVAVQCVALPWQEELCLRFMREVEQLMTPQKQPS

[3] = Drug metabolism in human liver microsomes after 10 mins; format: ADME, Microsome; settings: read-out: Drug metabolism
[4] = Drug metabolism in rat liver microsomes after 10 mins; format: ADME, Microsome; settings: read-out: Drug metabolism
[5] = target: Cannabinoid receptor 1 (Homo sapiens, UniProt P21554); test: Displacement of [3H]SR141716A from human CB1 receptor
Sequence of Cannabinoid receptor 1 (P21554 whole entry): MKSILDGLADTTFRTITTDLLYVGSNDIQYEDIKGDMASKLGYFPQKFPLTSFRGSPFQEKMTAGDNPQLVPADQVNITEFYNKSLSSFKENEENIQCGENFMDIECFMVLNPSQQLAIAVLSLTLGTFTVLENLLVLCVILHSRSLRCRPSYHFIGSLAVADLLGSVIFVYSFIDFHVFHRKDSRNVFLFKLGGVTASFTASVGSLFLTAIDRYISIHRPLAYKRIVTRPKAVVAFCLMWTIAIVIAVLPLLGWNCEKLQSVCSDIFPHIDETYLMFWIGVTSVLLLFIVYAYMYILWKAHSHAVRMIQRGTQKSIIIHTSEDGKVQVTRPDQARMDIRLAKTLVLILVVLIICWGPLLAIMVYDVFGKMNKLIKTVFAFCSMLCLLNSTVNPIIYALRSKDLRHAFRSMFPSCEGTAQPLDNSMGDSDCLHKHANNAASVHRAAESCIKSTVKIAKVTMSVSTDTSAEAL

[6] = target: Cannabinoid receptor 2 (Homo sapiens, UniProt P34972); test: Displacement of [3H]CP55940 from human CB2 receptor
Sequence of Cannabinoid receptor 2 (P34972 whole entry): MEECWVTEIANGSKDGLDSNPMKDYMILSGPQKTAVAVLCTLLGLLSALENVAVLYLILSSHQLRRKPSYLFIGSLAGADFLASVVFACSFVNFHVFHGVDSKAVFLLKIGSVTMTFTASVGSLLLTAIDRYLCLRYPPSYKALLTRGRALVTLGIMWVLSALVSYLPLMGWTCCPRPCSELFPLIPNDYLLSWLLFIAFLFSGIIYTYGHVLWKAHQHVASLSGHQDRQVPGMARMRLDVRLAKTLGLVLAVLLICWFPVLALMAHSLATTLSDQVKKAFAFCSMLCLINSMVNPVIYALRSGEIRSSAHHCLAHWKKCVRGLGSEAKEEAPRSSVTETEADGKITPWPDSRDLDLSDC

[7] = system: Brain; test: Drug uptake in rat brain at 1 mg/kg, iv; format: ADME, organism-based; design: dose 1 mg/kg, route intravenous; settings: in vivo
[8] = target: Cytochrome P450 2D6 (Homo sapiens, UniProt P10635); test: Inhibition of CYP2D6; format: ADME
Sequence of Cytochrome P450 2D6 (P10635 whole entry): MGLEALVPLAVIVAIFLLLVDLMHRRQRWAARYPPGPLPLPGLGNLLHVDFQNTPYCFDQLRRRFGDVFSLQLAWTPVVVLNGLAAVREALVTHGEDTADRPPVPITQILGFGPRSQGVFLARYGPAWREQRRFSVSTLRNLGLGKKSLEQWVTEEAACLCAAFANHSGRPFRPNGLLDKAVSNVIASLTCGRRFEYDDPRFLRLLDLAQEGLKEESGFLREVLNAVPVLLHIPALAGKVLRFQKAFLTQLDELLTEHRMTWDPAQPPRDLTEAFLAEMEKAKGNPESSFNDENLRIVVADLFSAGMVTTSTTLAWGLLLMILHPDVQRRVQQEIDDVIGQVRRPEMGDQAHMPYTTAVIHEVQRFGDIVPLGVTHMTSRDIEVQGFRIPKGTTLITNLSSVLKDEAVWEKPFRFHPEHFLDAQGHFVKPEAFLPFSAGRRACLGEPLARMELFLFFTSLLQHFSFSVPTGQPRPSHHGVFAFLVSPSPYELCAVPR

[9] = Plasma clearance in rat at 2 mg/kg, iv; format: ADME, organism-based; design: dose 2 mg/kg, route intravenous
[10] = target: Cytochrome P450 2C19 (Homo sapiens, UniProt P33261); test: Inhibition of CYP2C19; format: ADME
Sequence of Cytochrome P450 2C19 (P33261 whole entry): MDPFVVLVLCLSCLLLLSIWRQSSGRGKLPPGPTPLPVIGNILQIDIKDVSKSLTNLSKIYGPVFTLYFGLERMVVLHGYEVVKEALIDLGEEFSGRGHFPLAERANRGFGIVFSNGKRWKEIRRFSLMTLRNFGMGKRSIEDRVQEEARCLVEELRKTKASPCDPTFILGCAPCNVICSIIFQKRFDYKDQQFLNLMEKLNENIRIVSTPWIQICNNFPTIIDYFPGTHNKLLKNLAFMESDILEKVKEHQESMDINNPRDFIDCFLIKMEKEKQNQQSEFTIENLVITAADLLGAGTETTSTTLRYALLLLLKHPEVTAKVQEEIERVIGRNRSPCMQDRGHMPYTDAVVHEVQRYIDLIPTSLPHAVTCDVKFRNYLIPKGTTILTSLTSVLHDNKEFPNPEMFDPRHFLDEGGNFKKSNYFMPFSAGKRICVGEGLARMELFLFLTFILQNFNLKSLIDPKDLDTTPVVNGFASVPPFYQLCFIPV

[11] = system: Plasma; test: Plasma concentration in rat at 1 mg/kg, iv; format: ADME, organism-based; design: dose 1 mg/kg, route intravenous; settings: in vivo
[12] = target: Cytochrome P450 2C9 (Homo sapiens, UniProt P11712); test: Inhibition of CYP2C9; format: ADME
Sequence of Cytochrome P450 2C9 (P11712 whole entry): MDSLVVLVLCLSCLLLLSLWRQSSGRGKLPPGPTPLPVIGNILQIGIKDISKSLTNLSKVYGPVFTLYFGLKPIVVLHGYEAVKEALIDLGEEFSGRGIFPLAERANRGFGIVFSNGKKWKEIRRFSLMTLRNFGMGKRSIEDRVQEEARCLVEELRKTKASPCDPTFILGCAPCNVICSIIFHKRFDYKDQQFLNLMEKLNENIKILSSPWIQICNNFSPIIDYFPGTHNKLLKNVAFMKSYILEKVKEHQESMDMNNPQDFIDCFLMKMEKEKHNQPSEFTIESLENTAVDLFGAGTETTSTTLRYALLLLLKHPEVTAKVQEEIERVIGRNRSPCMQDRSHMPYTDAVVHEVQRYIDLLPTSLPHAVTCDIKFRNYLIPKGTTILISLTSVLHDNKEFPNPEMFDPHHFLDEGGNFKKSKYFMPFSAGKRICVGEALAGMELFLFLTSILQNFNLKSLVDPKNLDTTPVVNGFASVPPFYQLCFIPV

[13] = system: Plasma; test: Plasma concentration in rat at 0.3 mg/kg, iv; format: ADME, organism-based; design: dose 0.3 mg/kg, route intravenous; settings: in vivo
[14] = system: Plasma; test: Ratio of plasma concentration in rat hepatic portal vein to plasma concentration in rat vena cava at 4 mg/kg, po; format: ADME, organism-based; design: dose 4 mg/kg, route oral; settings: in vivo
[15] = Apparent permeability from basolateral to apical side of human Caco2 cells; format: ADME, cell-based; settings: Caco-2
[16] = Apparent permeability from apical to basolateral side of human Caco2 cells; format: ADME, cell-based; settings: Caco-2
[17] = system: Rattus norvegicus; test: Inhibition of FAAH in rat assessed as AEA level in brain at 0.3 mg/kg, iv administered 30 mins prior to anandamide loading measured after 30 mins relative to vehicle treated control; format: functional
[18] = Aqueous solubility of the compound at pH 1; format: physicochemical; settings: aqueous medium
[19] = Volume of distribution in rat at 2 mg/kg, iv; format: ADME, organism-based; design: dose 2 mg/kg, route intravenous; settings: in vivo
[20] = target: T3, Cytochrome P450 1A2 (Homo sapiens, UniProt P05177); test: Inhibition of CYP1A2; format: ADME
T3 sequence (P05177 whole entry): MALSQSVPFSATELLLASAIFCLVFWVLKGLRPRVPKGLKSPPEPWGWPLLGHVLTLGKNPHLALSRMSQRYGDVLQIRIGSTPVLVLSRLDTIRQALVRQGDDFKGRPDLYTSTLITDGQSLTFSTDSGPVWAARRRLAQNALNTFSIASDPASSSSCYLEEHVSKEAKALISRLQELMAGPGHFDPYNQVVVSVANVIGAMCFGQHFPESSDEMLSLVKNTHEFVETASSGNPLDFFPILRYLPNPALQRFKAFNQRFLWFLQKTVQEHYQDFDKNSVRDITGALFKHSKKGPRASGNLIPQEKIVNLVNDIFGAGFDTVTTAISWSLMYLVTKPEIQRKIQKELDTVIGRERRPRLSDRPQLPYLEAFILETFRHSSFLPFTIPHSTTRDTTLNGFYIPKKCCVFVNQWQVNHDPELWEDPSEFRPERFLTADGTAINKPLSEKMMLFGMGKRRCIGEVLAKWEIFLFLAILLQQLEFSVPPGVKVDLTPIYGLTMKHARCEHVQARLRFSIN

[21] = system: Plasma; test: Plasma concentration in rat at 3 mg/kg, iv; format: ADME, organism-based; design: dose 3 mg/kg, route intravenous; settings: in vivo
[22] = target: Cytochrome P450 3A4 (Homo sapiens, UniProt P08684); test: Inhibition of CYP3A4; format: ADME
Sequence of Cytochrome P450 3A4 (P08684 whole entry): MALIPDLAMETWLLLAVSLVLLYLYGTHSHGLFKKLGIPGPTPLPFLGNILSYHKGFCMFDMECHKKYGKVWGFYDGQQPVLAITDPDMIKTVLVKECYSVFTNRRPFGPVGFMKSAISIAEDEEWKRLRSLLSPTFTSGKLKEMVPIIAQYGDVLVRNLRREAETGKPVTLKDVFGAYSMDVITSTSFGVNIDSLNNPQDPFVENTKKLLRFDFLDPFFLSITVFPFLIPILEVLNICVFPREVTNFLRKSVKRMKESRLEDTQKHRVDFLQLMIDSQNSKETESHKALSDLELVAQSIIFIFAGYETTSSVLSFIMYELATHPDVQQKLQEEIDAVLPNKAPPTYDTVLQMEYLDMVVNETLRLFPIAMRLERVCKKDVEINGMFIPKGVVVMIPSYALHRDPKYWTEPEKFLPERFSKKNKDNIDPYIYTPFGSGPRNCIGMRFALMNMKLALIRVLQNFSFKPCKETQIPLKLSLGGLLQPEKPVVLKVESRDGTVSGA

[23] = target: T4, Monoglyceride lipase (Homo sapiens, UniProt Q99685); test: Inhibition of human recombinant N-His6-tagged MAGL expressed in Escherichia coli using 7-Hydroxycoumarinyl arachidonate as substrate by fluorimetry
T4 sequence (Q99685 whole entry): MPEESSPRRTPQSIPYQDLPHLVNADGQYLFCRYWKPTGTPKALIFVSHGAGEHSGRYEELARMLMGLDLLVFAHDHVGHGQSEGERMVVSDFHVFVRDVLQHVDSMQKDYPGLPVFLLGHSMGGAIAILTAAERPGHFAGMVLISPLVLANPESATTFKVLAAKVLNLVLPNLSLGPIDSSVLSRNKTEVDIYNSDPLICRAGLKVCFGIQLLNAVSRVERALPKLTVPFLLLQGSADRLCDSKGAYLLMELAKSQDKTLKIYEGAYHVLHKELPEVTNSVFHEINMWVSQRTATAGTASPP

[24] = Cmax in rat at 4 mg/kg, po; format: ADME, organism-based; design: dose 4 mg/kg, route oral; settings: in vivo
[25] = system: Rattus norvegicus; test: Inhibition of FAAH in rat assessed as AEA level in brain at 3 mg/kg, iv administered 30 mins prior to anandamide loading measured after 30 mins relative to vehicle treated control; format: functional
[26] = system: Brain; test: Drug uptake in rat brain at 0.3 mg/kg, iv; format: ADME, organism-based; design: dose 0.3 mg/kg, route intravenous; settings: in vivo
[27] = system: Brain; test: Drug uptake in rat brain at 3 mg/kg, iv; format: ADME, organism-based; design: dose 3 mg/kg, route intravenous; settings: in vivo
[28] = target: Voltage-gated inwardly rectifying potassium channel KCNH2 (Homo sapiens, UniProt Q12809); test: Inhibition of human ERG
Sequence of Voltage-gated inwardly rectifying potassium channel KCNH2 (Q12809 whole entry): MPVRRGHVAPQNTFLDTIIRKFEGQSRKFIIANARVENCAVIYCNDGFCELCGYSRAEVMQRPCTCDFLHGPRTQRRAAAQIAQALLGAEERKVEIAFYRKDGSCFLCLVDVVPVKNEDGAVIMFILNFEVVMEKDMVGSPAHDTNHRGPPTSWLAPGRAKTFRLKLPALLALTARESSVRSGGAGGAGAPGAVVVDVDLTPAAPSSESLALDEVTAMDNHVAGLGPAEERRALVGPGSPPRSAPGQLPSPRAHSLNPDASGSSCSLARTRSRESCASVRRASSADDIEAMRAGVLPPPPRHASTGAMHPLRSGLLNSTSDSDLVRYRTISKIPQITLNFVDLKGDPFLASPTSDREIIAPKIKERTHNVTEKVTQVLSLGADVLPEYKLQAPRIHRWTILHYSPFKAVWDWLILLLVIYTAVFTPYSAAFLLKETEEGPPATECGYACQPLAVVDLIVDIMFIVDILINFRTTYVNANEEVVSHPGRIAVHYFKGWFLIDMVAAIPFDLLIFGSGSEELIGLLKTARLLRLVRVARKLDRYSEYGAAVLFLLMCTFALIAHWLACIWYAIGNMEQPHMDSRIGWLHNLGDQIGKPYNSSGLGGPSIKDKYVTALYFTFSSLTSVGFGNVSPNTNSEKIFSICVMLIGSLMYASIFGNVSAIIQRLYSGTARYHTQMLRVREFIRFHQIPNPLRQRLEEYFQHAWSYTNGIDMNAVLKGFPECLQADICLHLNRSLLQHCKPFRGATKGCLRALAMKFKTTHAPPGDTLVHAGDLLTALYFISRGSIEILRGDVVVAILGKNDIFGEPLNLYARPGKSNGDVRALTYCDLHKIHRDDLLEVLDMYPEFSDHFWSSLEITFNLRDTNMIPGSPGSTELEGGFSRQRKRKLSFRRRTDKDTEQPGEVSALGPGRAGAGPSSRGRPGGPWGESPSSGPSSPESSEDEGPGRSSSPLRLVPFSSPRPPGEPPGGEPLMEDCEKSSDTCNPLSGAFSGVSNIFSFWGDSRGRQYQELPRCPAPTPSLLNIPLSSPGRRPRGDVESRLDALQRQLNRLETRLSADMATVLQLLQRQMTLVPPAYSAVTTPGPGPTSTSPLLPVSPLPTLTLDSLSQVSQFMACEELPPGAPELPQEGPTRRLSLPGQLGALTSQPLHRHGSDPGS

[29] = system: Rattus norvegicus; test: Inhibition of FAAH in iv dosed rat assessed as AEA level in brain administered 30 mins prior to anandamide loading measured after 30 mins; format: functional, organism-based
[30] = system: Rattus norvegicus; test: Inhibition of FAAH in rat assessed as AEA level in brain at 1 mg/kg, iv administered 30 mins prior to anandamide loading measured after 30 mins relative to vehicle treated control; format: functional
[31] = Oral bioavailability in rat at 4 mg/kg; format: ADME, organism-based; settings: in vivo
[32] = Aqueous solubility of the compound at pH 6.8; format: physicochemical; settings: aqueous medium

pIC50 [1]: 4.39 | pIC50 [2]: 5.34 | metabolised at 10 min [3]: 92% | metabolised at 10 min [4]: 95% | pKi [5]: 8.82 | pKi [6]: 6.31
Structure (SMILES): CN(Cc1ccccc1)C(=O)N1CC(O[C@H](c2ccc(Cl)cc2)c2cccnc2Cl)C1

pIC50 [1]: 6.05 | pIC50 [2]: 7.03 | metabolised at 10 min [3]: 94% | metabolised at 10 min [4]: 98% | pKi [5]: 6.60 | pKi [6]: 5.40
Structure (SMILES): CN(Cc1ccccc1)C(=O)N1CC(O[C@@H](c2ccc(Cl)cc2)c2cccnc2Cl)C1

Drug uptake [7]: 79 ng/g | pIC50 [8]: < 5.00 | pIC50 [1]: 6.01 | clearance [9]: 47 mL/min/kg | pIC50 [10]: 5.69 | Cp [11]: 72 ng/g | pIC50 [12]: < 5.00 | Cp [13]: 8.5 ng/g | Ratio [14]: 17 | Papp B→A [15]: 27.5 ×10⁻⁶ cm/s | Papp A→B [16]: 31.7 ×10⁻⁶ cm/s | pIC50 [2]: 6.95 | solubility [18]: 158 µM (≈ 66.4 µg/mL) | Vd [19]: 3.3 L/kg | metabolised at 10 min [3]: 92% | pIC50 [20]: < 5.00 | Cp [21]: 109 ng/g | pIC50 [22]: < 5.00 | pIC50 [23]: 4.65 | Cmax [24]: 5 ng/mL | metabolised at 10 min [4]: 98% | Drug uptake [26]: 18 ng/g | Drug uptake [27]: 137 ng/g | bioavailability [31]: 2.4% | solubility [32]: 175 µM (≈ 73.6 µg/mL)
Structure (SMILES): O=C(N1CCCCC1)N1CC(O[C@@H](c2ccc(Cl)cc2)c2cccnc2Cl)C1
fold change (FC) [17]: 1.7 | fold change (FC) [25]: 5.1 | pIC50 [28]: 4.51 | inhibition [29]: Dose-dependent effect | fold change (FC) [30]: 3.3

pIC50 [1]: < 3.30 | pIC50 [2]: 4.38 | metabolised at 10 min [3]: 78% | metabolised at 10 min [4]: > 99% | pKi [5]: 8.15
Structure (SMILES): O=C(N1CCCCC1)N1CC(O[C@H](c2ccc(Cl)cc2)c2cccnc2Cl)C1

pIC50 [1]: < 3.30 | pIC50 [2]: 4.94 | metabolised at 10 min [3]: 20% | metabolised at 10 min [4]: 45%
Structure (SMILES): O=C(NCc1ccccc1)N1CC(OC(c2ccc(Cl)cc2)c2cccnc2Cl)C1 (racemic)

pIC50 [1]: < 3.30 | pIC50 [2]: < 3.30 | metabolised at 10 min [3]: 57% | metabolised at 10 min [4]: 83%
Structure (SMILES): O=C(N(CCO)Cc1ccccc1)N1CC(OC(c2ccc(Cl)cc2)c2cccnc2Cl)C1 (racemic)

pIC50 [1]: 4.61 | pIC50 [2]: 5.40 | metabolised at 10 min [3]: 17% | metabolised at 10 min [4]: 45%
Structure (SMILES): O=C(N1Cc2ccccc2C1)N1CC(OC(c2ccc(Cl)cc2)c2cccnc2Cl)C1 (racemic)

pIC50 [1]: 5.17 | pIC50 [2]: 6.27 | metabolised at 10 min [3]: 75% | metabolised at 10 min [4]: 82%
Structure (SMILES): O=C(N1CCc2ccccc2C1)N1CC(OC(c2ccc(Cl)cc2)c2cccnc2Cl)C1 (racemic)

— ChEMBL document CHEMBL1949530, “Fatty acid amide hydrolase inhibitors. 3: tetra-substituted azetidine ureas with in vivo activity” (Bioorg Med Chem Lett, 2012)
